Reference: PubChem BioAssay AID1963977 (Molecular Pharmacology Branch, DTP, NCI, 2024)
One block for each compound: values may come before it.

System: 624824-186-R-J3-PDC multicell spheroids, viability
Assay: Anticancer human tumor 624824-186-R-J3-PDC patient-derived colon adenocarcinoma cell line growth inhibition [PI3K]
Settings: for IC50: curve of first compound; for viability, T/C: stronger effect = lower value
Procedure, shortened: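 Stroma-containing spheroids: tumor line, pooled-donor HUVEC, hMSC. Treatments: targeted agents with PI3K inhibitors. Dosing: clinically relevant, half-log spacing, 10 microM ceiling without known Cmax. Read-out: cell viability.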

[1] = second compound 0.0316 µM, first compound 0.0316 µM
[2] = second compound 0.0316 µM, first compound 0.1 µM
[3] = second compound 0.0316 µM, first compound 0.316 µM
[4] = second compound 0.0316 µM, first compound 1 µM
[5] = second compound 0.0316 µM, first compound 3.16 µM
[6] = second compound 0.0316 µM, first compound 10 µM
[7] = second compound 0.1 µM, first compound 0.0316 µM
[8] = second compound 0.1 µM, first compound 0.1 µM
[9] = second compound 0.1 µM, first compound 0.316 µM
[10] = second compound 0.1 µM, first compound 1 µM
[11] = second compound 0.1 µM, first compound 3.16 µM
[12] = second compound 0.1 µM, first compound 10 µM
[13] = second compound 0.316 µM, first compound 0.0316 µM
[14] = second compound 0.316 µM, first compound 0.1 µM
[15] = second compound 0.316 µM, first compound 0.316 µM
[16] = second compound 0.316 µM, first compound 1 µM
[17] = second compound 0.316 µM, first compound 3.16 µM
[18] = second compound 0.316 µM, first compound 10 µM
[19] = second compound 1 µM, first compound 0.0316 µM
[20] = second compound 1 µM, first compound 0.1 µM
[21] = second compound 1 µM, first compound 0.316 µM
[22] = second compound 1 µM, first compound 1 µM
[23] = second compound 1 µM, first compound 3.16 µM
[24] = second compound 1 µM, first compound 10 µM
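Note: spheroids exposed to agents for seven days before luminescence read.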
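Throughout, for viability, T/C: luminescent signal used as a stand-in for spheroid viability; percent viability relative to DMSO vehicle control wells taken as 100%.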

IC50 (second compound 0.0316 µM): 5.61 µM
IC50 (second compound 0.1 µM): 5.42 µM
IC50 (second compound 0.316 µM): 5.18 µM
IC50 (second compound 1 µM): 4.6 µM
IC50 (second compound 3.16 µM): 1.83 µM
IC50 (second compound 10 µM): < 0.0316 µM
Structure (SMILES): CC1(C)CCC(Nc2ncc(C(F)(F)F)c(-c3c[nH]c4c(P(C)(C)=O)c(C#N)ccc34)n2)CN1 (centres undefined) + Cc1nc(NC(=O)N2CCCC2C(N)=O)sc1-c1ccnc(C(C)(C)C(F)(F)F)c1
viability, T/C [1]: 113%
viability, T/C [2]: 92%
viability, T/C [3]: 106%
viability, T/C [4]: 101%
viability, T/C [5]: 95%
viability, T/C [6]: 4.64%
viability, T/C [7]: 107%
viability, T/C [8]: 89.9%
viability, T/C [9]: 110%
viability, T/C [10]: 102%
viability, T/C [11]: 90.3%
viability, T/C [12]: 4.24%
viability, T/C [13]: 97.5%
viability, T/C [14]: 103%
viability, T/C [15]: 88%
viability, T/C [16]: 92.2%
viability, T/C [17]: 84.5%
viability, T/C [18]: 4.3%
viability, T/C [19]: 76.1%
viability, T/C [20]: 75.9%
viability, T/C [21]: 79.3%
viability, T/C [22]: 79.4%
viability, T/C [23]: 72.3%
viability, T/C [24]: 3.52%
viability, T/C (second compound 3.16 µM, first compound 0.0316 µM): 59.1%
viability, T/C (second compound 3.16 µM, first compound 0.1 µM): 54.3%
viability, T/C (second compound 3.16 µM, first compound 0.316 µM): 53.7%
viability, T/C (second compound 3.16 µM, first compound 1 µM): 55.3%
viability, T/C (second compound 3.16 µM, first compound 3.16 µM): 45.6%
viability, T/C (second compound 3.16 µM, first compound 10 µM): 2.38%
viability, T/C (second compound 10 µM, first compound 0.0316 µM): 35.5%
viability, T/C (second compound 10 µM, first compound 0.1 µM): 34.1%
viability, T/C (second compound 10 µM, first compound 0.316 µM): 36.2%
viability, T/C (second compound 10 µM, first compound 1 µM): 34%
viability, T/C (second compound 10 µM, first compound 3.16 µM): 39%
viability, T/C (second compound 10 µM, first compound 10 µM): 1.61%

IC50 (second compound 0.00316 µM): 9.41 µM
IC50 (second compound 0.01 µM): 8.77 µM
IC50 (second compound 0.0316 µM): 9.64 µM
IC50 (second compound 0.1 µM): 9.37 µM
IC50 (second compound 0.316 µM): > 10 µM
IC50 (second compound 1 µM): 9.12 µM
Structure (SMILES): CC1(C)CCC(CN2CCN(c3ccc(C(=O)NS(=O)(=O)c4ccc(NCC5CCOCC5)c([N+](=O)[O-])c4)c(Oc4cnc5[nH]ccc5c4)c3)CC2)=C(c2ccc(Cl)cc2)C1 + CC(Nc1ccc2c(c1)OCCn1cc(N3C(=O)OCC3C(F)F)nc1-2)C(N)=O
viability, T/C (second compound 0.00316 µM, first compound 0.0316 µM): 104%
viability, T/C (second compound 0.00316 µM, first compound 0.1 µM): 88.6%
viability, T/C (second compound 0.00316 µM, first compound 0.316 µM): 102%
viability, T/C (second compound 0.00316 µM, first compound 1 µM): 90.9%
viability, T/C (second compound 0.00316 µM, first compound 3.16 µM): 112%
viability, T/C (second compound 0.00316 µM, first compound 10 µM): 47.3%
viability, T/C (second compound 0.01 µM, first compound 0.0316 µM): 105%
viability, T/C (second compound 0.01 µM, first compound 0.1 µM): 92%
viability, T/C (second compound 0.01 µM, first compound 0.316 µM): 99.5%
viability, T/C (second compound 0.01 µM, first compound 1 µM): 106%
viability, T/C (second compound 0.01 µM, first compound 3.16 µM): 114%
viability, T/C (second compound 0.01 µM, first compound 10 µM): 43.2%
viability, T/C [1]: 100%
viability, T/C [2]: 105%
viability, T/C [3]: 89.4%
viability, T/C [4]: 99%
viability, T/C [5]: 117%
viability, T/C [6]: 48.3%
viability, T/C [7]: 88.7%
viability, T/C [8]: 99.9%
viability, T/C [9]: 90.9%
viability, T/C [10]: 109%
viability, T/C [11]: 102%
viability, T/C [12]: 47.1%
viability, T/C [13]: 98.5%
viability, T/C [14]: 95.3%
viability, T/C [15]: 99.2%
viability, T/C [16]: 86.3%
viability, T/C [17]: 89%
viability, T/C [18]: 53.6%
viability, T/C [19]: 82.7%
viability, T/C [20]: 85.5%
viability, T/C [21]: 85.7%
viability, T/C [22]: 81.4%
viability, T/C [23]: 70.2%
viability, T/C [24]: 48.2%
